# Measured values published in PMC12300679, “Taurine-Based Hybrid Drugs as Potential Anticancer Therapeutic Agents: In Vitro, In Vivo Evaluations” (Pharmaceuticals, 2025).
# Key:
# [1] = Acute in vivo toxicity, single intraperitoneal administration; settings: mouse, ip, BDF1 mice, Behrens method, 14 d observation, read-out: half-lethal toxic dose (LD50)
# Experimental: Firstly, acute in vivo toxicity was determined in order to calculate doses for the determination of the potential antileukemia activity. An acute toxicity study was carried out on the mice of the BDF1 line weighing from 20 to 24 g. In the experiment, clinically healthy animals were used, which were treated under the same conditions. To evaluate LD50, the toxicity gain curve was plotted against increasing doses (the Behrens method) (Figure 3).
# Acute toxicity was evaluated using mice of the BDF1 line weighing from 20 to 24 g. In the experiment, clinically healthy animals treated under the same conditions were used. A total of 4–6 animals were used for each dose. All experiments on animals were carried out according to the Nursery and Vivarium, Russian Academy of Sciences Federal Research Center of Problems of Chemical Physics and Medicinal Chemistry (FRC PCPMC RAS) and in accordance with the rules established by the Commission on Bioethics of the FRC PCPMC RAS. One day after administration of the specimen, the animals were continuously treated for 4 h. Then, death of animals and clinical pattern of intoxication were evaluated once a day for 14 d. The test compounds were added intraperitoneally once. The individual volume of each animal was calculated from the mass of the body and dose of the test compound.
# The lethal dose (LD100) for all animals and the maximum tolerable dose (MTD) values were also evaluated. Results of the studies are given in the form of tables and graphs.
# [2] = system: M-HeLa human cervix carcinoma cells; experiment: MTT cytotoxicity assay, M-HeLa; type: cell-based; settings: for IC50: Homo sapiens, M-HeLa, MTT, tested at 1–200 µM, three independent experiments
# [3] = system: HL-60 human promyelocytic leukemia cells; experiment: MTT cytotoxicity assay, HL-60; type: cell-based; settings: Homo sapiens, HL-60; MTT, tested at 1–200 µM, three independent experiments
# lymphatic leukemia P388 = experiment: Antitumor activity, syngeneic lymphatic leukemia P388 in BDF1 mice; type: in vivo, mouse; settings: for ILS / MST ± SD: i.p. days 1, 5, 9; for antileukemia / antitumor effect (in words): doses under study, i.p.
# Experimental: At the next stage, we evaluated them in vivo using syngeneic mouse leukosis P388, which plays an important role in the screening of potential antitumor agents. The antitumor effect of the synthesized compounds was evaluated according to the increase in the average lifespan (ILS, %) of tumor-bearing animals. Due to the fact that physiologically relevant solvent, such as water or physiological solution [49], can be used as a solvent for parenteral administration of substances, we chose only water-soluble compounds 4o–r for the in vivo study.
# As model tumors for the determination of antitumor activity of phosphorus-containing derivatives of pyrrolidine, the strain of lymphatic leukemia P388 was chosen. Lymphatic leukemia P388 was transplanted into hybrid mice of the BDF1 line intraperitoneally in accordance with the standard procedure. The inoculum contained 10^6 tumor cells in isotonic solution of NaCl. […] In each experiment, the control group was represented by the cohort of animals with tumors not treated with the compounds. Each group consisted of six mice. The animals were inspected daily over at least 60 days. The effectiveness of therapy was evaluated by the number of surviving animals, as well as by the increase in the average lifespan (ILS%), which was evaluated as the percentage of the mean survival time (MST) of the treated group (t) as compared to the control group (c): […].
# [4] = system: WI38 human fibroblast cell line; experiment: MTT cytotoxicity assay, normal WI38 cells; type: cell-based; settings: WI-38, tested at 1–200 µM, three independent experiments
# [5] = system: HuTu 80 human duodenal adenocarcinoma cells; experiment: MTT cytotoxicity assay, HuTu 80; type: cell-based; settings: for IC50: Homo sapiens, HuTu80, MTT, tested at 1–200 µM, three independent experiments
# [6] = system: RPMI 1788 human healthy donor peripheral blood leukocytes; experiment: MTT cytotoxicity assay, normal RPMI 1788 cells; type: cell-based; settings: tested at 1–200 µM, three independent experiments, read-out: IC50 RPMI 1788 (normal cell line)
# [7] = dose 12 (table prints no unit; b71 mg/kg)
# [8] = dose 17 (table prints no unit; b71 mg/kg)
# [9] = dose 27 (table prints no unit; b71 mg/kg)
# [10] = dose 38 (table prints no unit; b71 mg/kg)
# [11] = dose 57 (table prints no unit; b71 mg/kg)
# [12] = dose 10 (table prints no unit; b71 mg/kg)
# [13] = dose 15 (table prints no unit; b71 mg/kg)
# [14] = dose 22 (table prints no unit; b71 mg/kg)
# [15] = dose 31 (table prints no unit; b71 mg/kg)
# [16] = dose 47 (table prints no unit; b71 mg/kg)
compound,measurement,setting,value
"Cl.O=P(c1ccccc1)(c1ccccc1)C1CCCN1S(=O)(=O)CCN1CCCC1 (stereo not drawn) [Compound 4q, 1-(2-((2-(Diphenylphosphoryl)pyrrolidin-1-yl)sulfonyl)ethyl)pyrrolidin-1-ium chloride]",LD50 at 14 d,[1],215 ± 16.7 mg/kg
same,IC50,[2],> 100 µM
same,IC50,[3],> 100 µM
same,ILS,lymphatic leukemia P388; [7],−9%
same,MST ± SD,lymphatic leukemia P388; [7],8.3 ± 0.6 days
same,ILS,lymphatic leukemia P388; [8],13%
same,MST ± SD,lymphatic leukemia P388; [8],10.3 ± 0.9 days
same,ILS,lymphatic leukemia P388; [9],33%
same,MST ± SD,lymphatic leukemia P388; [9],12.2 ± 1.7 days
same,ILS,lymphatic leukemia P388; [10],69%
same,MST ± SD,lymphatic leukemia P388; [10],15.5 ± 3.9 days
same,ILS,lymphatic leukemia P388; [11],11%
same,MST ± SD,lymphatic leukemia P388; [11],10.2 ± 0.2 days
same,antileukemia / antitumor effect (in words),lymphatic leukemia P388,exhibited antileukemia activity
same,IC50,[4],> 100 µM
same,IC50,[5],> 100 µM
same,IC50,[6],> 100 µM
"Cl.O=P(c1ccccc1)(c1ccccc1)C1CCCN1S(=O)(=O)CCN1CCCCC1 (stereo not drawn) [Compound 4r, 1-(2-((2-(Diphenylphosphoryl)pyrrolidin-1-yl)sulfonyl)ethyl)piperidin-1-ium chloride]",LD50 at 14 d,[1],170 ± 12.1 mg/kg
same,IC50,[2],96 ± 8.6 µM
same,SI (selectivity index) M-HeLa,[2]; M-HeLa versus normal WI38 cells,>1
same,IC50,[3],> 100 µM
same,ILS,lymphatic leukemia P388; [12],−9%
same,MST ± SD,lymphatic leukemia P388; [12],9.8 ± 0.2 days
same,ILS,lymphatic leukemia P388; [13],−2%
same,MST ± SD,lymphatic leukemia P388; [13],10.5 ± 0.8 days
same,ILS,lymphatic leukemia P388; [14],4%
same,MST ± SD,lymphatic leukemia P388; [14],11.2 ± 0.8 days
same,ILS,lymphatic leukemia P388; [15],0%
same,MST ± SD,lymphatic leukemia P388; [15],10.8 ± 0.7 days
same,ILS,lymphatic leukemia P388; [16],−1%
same,MST ± SD,lymphatic leukemia P388; [16],10.7 ± 0.8 days
same,antileukemia / antitumor effect (in words),lymphatic leukemia P388,did not display antitumor effect
same,IC50,[4],> 100 µM
same,IC50,[5],97.3 ± 8.2 µM
same,SI (selectivity index) HuTu 80,[5]; HuTu 80 versus normal WI38 cells,>1
same,IC50,[6],> 100 µM
